Data as given in ChEMBL document CHEMBL1201862, “PubChem BioAssay data set” (2004).
Activity calls are given as the source filed them.

Key:
NADPH oxidase 1 = NADPH oxidase 1 (Homo sapiens, UniProt Q9Y5S8); type: functional, cell-based;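 further: Cell-based assay with luminescence read-out, IC50 derived from inhibitor dose-response curves; intracellular ROS from endogenous NOX1 in intact HT29 colon cancer cells; potency of inhibitors that lower the ROS luminescence signal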
14-3-3 protein gamma = 14-3-3 protein gamma (Homo sapiens, UniProt P61981); assay: modulators of 14-3-3 gamma client binding – dose response (AID 711); type: functional
[1] = cytotoxicity toward NIH3T3 fibroblasts, dose response, counter-screen, cell-based, ATP luminescence, mouse fibroblasts (AID 2010); type: functional;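 further: cells exposed to compound for about 90 hours before reading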
[2] = inhibitors of intracellular T. cruzi replication, confirmation, NIH3T3 host cells, beta-gal luminescence (AID 2044); type: functional, cell-based;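 further: intracellular parasites grown in NIH/3T3 mouse fibroblasts as host cells; luminescent beta-galactosidase reporter signal from transgenic T. cruzi replicating inside host cells; inhibitors lower the luminescence signal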
INS1 = assay: beta cell apoptosis inhibitors, cytokine rescue, dose response, luminescence, retest (AID 449756); type: functional, cell-based; conditions: Rattus norvegicus;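 further: cell death triggered by IL-1 beta plus TNF-alpha plus IFN-gamma mixture; protective hits raise ATP signal compared with cytokine alone wells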
Melanocortin receptor 4 = Melanocortin receptor 4 (Homo sapiens, UniProt P32245); type: functional, cell-based;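 further: Cell-based assay with luminescence read-out, confirmatory dose-response testing for agonist activity of biased ligands at MC4R; human U2OS cells with tagged receptor and beta-arrestin; potency of agonists that increase receptor coupling to beta-arrestin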
[3] = molecular target: T1, Calpain-2 catalytic subunit (Sus scrofa, UniProt P43367); assay: pig calpain II inhibitor potency, dose response, biochemical, fluorogenic peptide substrate (AID 1420); type: functional
T1 sequence (P43367 whole entry): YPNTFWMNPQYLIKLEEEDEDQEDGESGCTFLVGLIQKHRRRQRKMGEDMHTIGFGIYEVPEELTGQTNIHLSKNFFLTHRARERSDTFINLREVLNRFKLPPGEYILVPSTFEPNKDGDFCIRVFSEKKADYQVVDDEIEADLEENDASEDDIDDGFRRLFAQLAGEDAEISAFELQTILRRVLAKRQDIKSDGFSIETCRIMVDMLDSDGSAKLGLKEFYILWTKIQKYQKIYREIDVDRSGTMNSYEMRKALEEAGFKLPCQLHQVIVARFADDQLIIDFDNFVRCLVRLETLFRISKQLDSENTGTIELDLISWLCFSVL

[4] = molecular target: Induced myeloid leukemia cell differentiation protein Mcl-1 (Homo sapiens, UniProt Q07820); assay: MCL1-BIM BH3 interaction inhibitors, dose response, biochemical, fluorescence polarization, BIM-BH3 peptide, 1536-well (AID 2217)
Bcl-2-like protein 1 = Bcl-2-like protein 1 (Homo sapiens, UniProt Q07817); assay: BCL-XL inhibitors, dose response, selectivity assay for MCL1 inhibitor project, biochemical, fluorescence polarization, 1536-well (AID 2218)
[5] = molecular target: Aryl hydrocarbon receptor (Homo sapiens, UniProt P35869); assay: Luminescence-based cell-based high throughput dose response assay for activators of the Aryl Hydrocarbon Receptor (AHR). [Related pubchem assays: 2796 (Primary screen (AHR activators in singlicate)), 2845 (Confirmation screen (AHR activators in triplicate)), 434939 (Counterscreen (PXR activators in triplicate)), 2804 (Summary (AHR activators))]; type: ADME
Cytochrome P450 2C9 = Cytochrome P450 2C9 (Homo sapiens, UniProt P11712)
Cytochrome P450 2C19 = Cytochrome P450 2C19 (Homo sapiens, UniProt P33261); assay: qHTS Assay for Inhibitors and Substrates of Cytochrome P450 2C19. [Related pubchem assays: 410 ]; type: ADME; conditions: read-out: Potency
Estrogen receptor = molecular target: T2, Estrogen receptor (Homo sapiens, UniProt P03372); assay: potentiators of ERα–SRC-1 coactivator binding, dose response, biochemical, TR-FRET, ERα LBD (AID 737)
T2 sequence (P03372 whole entry): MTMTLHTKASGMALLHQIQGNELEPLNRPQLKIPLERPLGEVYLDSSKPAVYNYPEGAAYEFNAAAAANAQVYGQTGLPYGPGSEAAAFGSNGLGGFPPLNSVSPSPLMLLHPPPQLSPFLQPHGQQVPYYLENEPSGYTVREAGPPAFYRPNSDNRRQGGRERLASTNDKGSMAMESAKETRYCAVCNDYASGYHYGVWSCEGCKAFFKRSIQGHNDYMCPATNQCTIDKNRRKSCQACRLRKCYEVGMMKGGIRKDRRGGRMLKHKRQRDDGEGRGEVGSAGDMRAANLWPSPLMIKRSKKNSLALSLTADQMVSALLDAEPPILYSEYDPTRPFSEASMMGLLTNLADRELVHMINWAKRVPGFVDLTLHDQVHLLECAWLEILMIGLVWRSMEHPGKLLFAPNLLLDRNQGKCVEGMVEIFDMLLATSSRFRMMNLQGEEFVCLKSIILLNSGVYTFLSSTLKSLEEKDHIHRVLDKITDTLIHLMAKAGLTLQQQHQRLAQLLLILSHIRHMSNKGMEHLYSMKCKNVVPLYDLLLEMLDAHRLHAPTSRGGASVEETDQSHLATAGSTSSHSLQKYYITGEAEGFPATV

[6] = molecular target: T3, RNA-binding protein pos-1 (Caenorhabditis elegans, UniProt G5EF15); assay: inhibitors of POS-1/mex-3 RNA binding, dose response, biochemical, fluorescence polarization (AID 1964);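 further: purified POS-1 fused to maltose binding protein made in E. coli; potency of compounds blocking POS-1 binding to fluorescent RNA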
T3 sequence (G5EF15 whole entry): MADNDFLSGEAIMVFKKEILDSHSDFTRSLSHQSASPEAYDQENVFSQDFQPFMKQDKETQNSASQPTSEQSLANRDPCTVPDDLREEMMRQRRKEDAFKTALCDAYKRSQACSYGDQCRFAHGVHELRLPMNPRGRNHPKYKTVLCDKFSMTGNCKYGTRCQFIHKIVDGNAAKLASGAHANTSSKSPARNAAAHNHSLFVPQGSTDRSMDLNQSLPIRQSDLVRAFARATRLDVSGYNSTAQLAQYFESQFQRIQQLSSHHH

[7] = molecular target: T4, Long-chain-fatty-acid--AMP ligase FadD28 (Mycobacterium tuberculosis, UniProt P9WQ59); assay: Fluorescence polarization aasay to screen for inhibitors that compete for the binding of FadD28 to a bisubstrate Measured in Biochemical System Using Plate Reader - 2147-01_Inhibitor_Dose_CherryPick_Activity.; type: functional, Mycobacterium tuberculosis H37Rv
T4 sequence (P9WQ59 whole entry): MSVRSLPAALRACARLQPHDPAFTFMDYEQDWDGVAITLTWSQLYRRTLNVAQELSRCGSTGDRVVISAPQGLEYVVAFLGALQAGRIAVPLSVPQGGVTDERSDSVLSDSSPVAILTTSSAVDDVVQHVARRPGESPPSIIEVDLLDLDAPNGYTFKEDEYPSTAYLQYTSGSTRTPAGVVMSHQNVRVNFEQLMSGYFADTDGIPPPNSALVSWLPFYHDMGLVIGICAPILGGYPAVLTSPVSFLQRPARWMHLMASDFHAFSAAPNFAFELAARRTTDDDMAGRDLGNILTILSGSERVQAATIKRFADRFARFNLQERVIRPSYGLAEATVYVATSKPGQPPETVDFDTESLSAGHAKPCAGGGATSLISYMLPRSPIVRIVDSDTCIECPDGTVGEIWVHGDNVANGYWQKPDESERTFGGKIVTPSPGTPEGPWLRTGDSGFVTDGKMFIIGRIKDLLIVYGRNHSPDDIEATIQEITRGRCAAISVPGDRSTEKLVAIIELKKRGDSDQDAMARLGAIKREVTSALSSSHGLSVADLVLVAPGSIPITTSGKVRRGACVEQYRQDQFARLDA

[8] = molecular target: T5, Zinc finger protein mex-5 (Caenorhabditis elegans, UniProt Q9XUB2); assay: MEX-5/TCR-2 RNA interaction inhibitors, dose response, biochemical, C. elegans, fluorescence polarization (AID 1960)
T5 sequence (Q9XUB2 whole entry): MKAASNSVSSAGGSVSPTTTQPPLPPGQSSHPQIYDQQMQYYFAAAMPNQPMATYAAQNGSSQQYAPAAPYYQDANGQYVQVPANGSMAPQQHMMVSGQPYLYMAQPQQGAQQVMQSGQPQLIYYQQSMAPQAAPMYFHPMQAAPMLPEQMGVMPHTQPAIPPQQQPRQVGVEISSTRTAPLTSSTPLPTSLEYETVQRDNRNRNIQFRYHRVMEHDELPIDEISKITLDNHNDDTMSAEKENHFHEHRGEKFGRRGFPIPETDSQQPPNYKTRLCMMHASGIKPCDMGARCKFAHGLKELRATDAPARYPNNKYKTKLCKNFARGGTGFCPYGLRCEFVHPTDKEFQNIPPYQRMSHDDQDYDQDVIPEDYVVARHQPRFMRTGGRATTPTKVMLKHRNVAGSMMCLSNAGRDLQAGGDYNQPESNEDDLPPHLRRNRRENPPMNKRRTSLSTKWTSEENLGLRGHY

[9] = molecular target: Heat shock protein HSP 90-alpha (Homo sapiens, UniProt P07900); type: functional, organism-based
Large T antigen = Large T antigen (Simian virus 40, UniProt P03070); type: functional, Betapolyomavirus macacae;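 further: Confirmatory-stage PubChem screen for compounds that inhibit SV40 T antigen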
[10] = Luminescence Cell-Based Dose Response HTS to Identify Activators of Luciferase Translation or Activity in H4 […] Cells. [Related pubchem assays: 1829 (Project Summary), 1814 (Primary HTS)]; type: functional
Estrogen receptor beta = Estrogen receptor beta (Homo sapiens, UniProt Q92731); assay: ERβ–SRC-3 coactivator interaction inhibitors, confirmation, orthogonal assay, biochemical, ELISA, streptavidin-HRP readout (AID 1060)
Cytochrome P450 3A4 = Cytochrome P450 3A4 (Homo sapiens, UniProt P08684);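 further: CYP3A4 tested as one member of a cytochrome P450 panel screen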
[11] = Luminescence Cell-Based Dose Confirmation HTS to Identify Activators of 5'UTR Stem-Loop Driven Alpha-Synuclein mRNA Translation in H4 Neuroglioblastoma Cells. [Related pubchem assays: 1829 (Project Summary), 1814 (Primary HTS)]; type: functional
H4 = assay: Luminescence Cell-Based Dose Response HTS to Identify Activators of 5'UTR Stem-Loop Driven Prion Protein mRNA Translation in H4 Neuroglioblastoma Cells. [Related pubchem assays: 1829 (Project Summary), 1814 (Primary HTS)]; type: functional; conditions: Homo sapiens
Vero = assay: host cell cytotoxicity of antiviral hits, dose response, cytotoxicity control for West Nile virus antiviral project, secondary assay (AID 1650); type: functional; conditions: Chlorocebus sabaeus
[12] = Luminescence Cell-Based Dose Retest to Confirm Inhibitors of Cancer Stem Cells. [Related pubchem assays (depositor defined):AID2717, AID2721]; type: functional; conditions: Homo sapiens

Induced myeloid leukemia cell differentiation protein Mcl-1, sequence (Q07820 whole entry): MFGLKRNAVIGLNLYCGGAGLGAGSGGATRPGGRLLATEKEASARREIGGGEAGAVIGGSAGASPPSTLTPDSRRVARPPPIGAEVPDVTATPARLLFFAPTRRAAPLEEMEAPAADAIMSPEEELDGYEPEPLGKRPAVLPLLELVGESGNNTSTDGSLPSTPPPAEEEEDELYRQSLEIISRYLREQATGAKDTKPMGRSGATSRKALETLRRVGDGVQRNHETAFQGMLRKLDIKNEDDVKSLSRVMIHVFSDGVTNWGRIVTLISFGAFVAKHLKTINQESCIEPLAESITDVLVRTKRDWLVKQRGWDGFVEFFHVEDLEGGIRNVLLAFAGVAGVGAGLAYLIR
Aryl hydrocarbon receptor, sequence (P35869 whole entry): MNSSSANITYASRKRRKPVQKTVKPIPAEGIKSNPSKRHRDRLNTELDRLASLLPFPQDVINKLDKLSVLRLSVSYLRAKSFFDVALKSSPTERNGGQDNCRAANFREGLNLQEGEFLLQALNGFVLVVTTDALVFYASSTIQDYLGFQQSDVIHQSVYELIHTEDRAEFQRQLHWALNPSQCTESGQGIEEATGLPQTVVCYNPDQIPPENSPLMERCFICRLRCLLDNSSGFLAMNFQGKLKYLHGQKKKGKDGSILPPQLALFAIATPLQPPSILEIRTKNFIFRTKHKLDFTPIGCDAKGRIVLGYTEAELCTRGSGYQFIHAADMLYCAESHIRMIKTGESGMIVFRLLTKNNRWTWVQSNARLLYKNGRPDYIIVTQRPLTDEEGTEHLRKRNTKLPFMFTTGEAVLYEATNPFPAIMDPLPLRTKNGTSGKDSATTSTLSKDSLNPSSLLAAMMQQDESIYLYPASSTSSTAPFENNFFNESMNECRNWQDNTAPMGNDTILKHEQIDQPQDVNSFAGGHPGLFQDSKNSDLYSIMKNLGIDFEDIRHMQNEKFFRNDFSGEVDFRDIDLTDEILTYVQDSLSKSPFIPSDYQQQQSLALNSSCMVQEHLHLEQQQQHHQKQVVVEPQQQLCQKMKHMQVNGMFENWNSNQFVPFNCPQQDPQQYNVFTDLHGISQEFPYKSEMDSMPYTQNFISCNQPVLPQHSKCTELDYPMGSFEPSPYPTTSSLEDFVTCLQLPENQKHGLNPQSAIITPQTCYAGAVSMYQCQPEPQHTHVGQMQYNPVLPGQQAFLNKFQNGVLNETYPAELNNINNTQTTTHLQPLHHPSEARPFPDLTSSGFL
Bcl-2-like protein 1, sequence (Q07817 whole entry): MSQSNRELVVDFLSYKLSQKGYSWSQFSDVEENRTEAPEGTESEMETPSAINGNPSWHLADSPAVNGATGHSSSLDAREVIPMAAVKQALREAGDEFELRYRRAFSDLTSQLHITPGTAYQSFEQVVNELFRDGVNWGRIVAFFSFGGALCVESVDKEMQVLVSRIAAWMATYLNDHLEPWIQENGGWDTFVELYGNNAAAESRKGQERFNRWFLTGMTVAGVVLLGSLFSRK
14-3-3 protein gamma, sequence (P61981 whole entry): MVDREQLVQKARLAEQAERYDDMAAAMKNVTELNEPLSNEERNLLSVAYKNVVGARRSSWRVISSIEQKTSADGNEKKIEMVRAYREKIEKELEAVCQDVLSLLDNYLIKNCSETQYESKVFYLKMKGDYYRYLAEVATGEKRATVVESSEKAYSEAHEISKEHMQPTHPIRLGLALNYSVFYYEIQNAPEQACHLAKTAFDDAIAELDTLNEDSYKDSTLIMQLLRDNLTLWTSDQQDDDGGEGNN
Cytochrome P450 2C19, sequence (P33261 whole entry, the tested form may be a part): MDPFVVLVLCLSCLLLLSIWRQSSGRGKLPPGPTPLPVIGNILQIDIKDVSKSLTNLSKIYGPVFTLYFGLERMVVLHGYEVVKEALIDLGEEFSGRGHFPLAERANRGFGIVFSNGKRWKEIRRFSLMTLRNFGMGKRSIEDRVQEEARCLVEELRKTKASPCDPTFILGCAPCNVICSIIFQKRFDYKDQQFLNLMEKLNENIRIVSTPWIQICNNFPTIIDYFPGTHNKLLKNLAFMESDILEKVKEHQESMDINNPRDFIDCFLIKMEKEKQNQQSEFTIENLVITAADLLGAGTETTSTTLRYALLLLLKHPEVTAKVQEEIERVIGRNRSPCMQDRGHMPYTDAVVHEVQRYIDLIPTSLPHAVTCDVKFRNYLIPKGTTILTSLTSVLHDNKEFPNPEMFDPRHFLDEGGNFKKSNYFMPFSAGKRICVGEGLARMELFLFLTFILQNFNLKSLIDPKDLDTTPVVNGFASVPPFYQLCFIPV
NADPH oxidase 1, sequence (Q9Y5S8 whole entry): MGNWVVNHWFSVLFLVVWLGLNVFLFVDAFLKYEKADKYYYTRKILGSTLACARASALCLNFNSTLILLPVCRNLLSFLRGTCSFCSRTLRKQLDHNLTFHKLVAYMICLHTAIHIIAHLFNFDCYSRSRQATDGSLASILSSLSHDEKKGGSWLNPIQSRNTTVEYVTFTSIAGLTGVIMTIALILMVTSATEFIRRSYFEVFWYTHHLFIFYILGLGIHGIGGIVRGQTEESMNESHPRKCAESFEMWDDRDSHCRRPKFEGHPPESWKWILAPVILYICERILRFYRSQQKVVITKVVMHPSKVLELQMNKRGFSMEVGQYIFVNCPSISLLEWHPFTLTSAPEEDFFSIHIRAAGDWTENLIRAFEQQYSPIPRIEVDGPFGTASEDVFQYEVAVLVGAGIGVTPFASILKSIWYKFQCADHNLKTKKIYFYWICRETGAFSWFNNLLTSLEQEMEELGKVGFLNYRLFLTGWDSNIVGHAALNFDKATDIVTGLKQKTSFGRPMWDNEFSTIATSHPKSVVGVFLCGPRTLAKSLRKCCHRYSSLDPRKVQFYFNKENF
Cytochrome P450 3A4, sequence (P08684 whole entry): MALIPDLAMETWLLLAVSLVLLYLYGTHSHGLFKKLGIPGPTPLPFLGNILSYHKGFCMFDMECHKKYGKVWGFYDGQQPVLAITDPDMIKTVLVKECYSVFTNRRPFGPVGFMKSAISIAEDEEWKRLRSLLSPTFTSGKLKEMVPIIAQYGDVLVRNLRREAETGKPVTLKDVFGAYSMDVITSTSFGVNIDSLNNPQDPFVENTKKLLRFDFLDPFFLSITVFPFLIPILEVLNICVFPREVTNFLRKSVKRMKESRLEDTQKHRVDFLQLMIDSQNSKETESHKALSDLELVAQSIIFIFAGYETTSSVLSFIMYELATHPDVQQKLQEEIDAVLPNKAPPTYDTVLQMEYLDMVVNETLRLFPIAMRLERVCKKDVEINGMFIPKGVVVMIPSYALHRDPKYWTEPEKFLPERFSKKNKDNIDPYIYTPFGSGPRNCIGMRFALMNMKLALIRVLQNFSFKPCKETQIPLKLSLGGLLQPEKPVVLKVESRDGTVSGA
Melanocortin receptor 4, sequence (P32245 whole entry): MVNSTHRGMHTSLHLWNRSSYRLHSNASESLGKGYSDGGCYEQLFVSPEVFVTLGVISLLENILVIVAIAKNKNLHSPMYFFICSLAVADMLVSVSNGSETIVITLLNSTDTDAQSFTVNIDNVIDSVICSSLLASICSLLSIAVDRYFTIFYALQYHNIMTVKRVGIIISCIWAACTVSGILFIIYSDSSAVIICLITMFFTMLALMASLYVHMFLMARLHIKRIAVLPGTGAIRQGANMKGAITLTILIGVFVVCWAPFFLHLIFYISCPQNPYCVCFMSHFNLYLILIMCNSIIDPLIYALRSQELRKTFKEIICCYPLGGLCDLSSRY
Estrogen receptor beta, sequence (Q92731 whole entry): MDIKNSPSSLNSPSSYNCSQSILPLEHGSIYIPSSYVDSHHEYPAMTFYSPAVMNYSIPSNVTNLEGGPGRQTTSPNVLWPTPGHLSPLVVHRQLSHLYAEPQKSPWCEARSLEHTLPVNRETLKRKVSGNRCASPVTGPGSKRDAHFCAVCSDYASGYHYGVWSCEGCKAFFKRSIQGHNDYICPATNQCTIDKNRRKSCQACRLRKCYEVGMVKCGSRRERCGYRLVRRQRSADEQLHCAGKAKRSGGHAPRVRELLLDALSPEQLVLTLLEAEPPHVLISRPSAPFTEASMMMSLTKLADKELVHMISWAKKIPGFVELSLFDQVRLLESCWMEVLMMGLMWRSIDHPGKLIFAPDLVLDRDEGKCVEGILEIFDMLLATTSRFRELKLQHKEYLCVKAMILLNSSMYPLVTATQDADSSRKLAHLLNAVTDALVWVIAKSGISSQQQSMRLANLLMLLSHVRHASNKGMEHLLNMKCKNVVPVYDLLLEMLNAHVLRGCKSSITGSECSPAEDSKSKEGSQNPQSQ
Cytochrome P450 2C9, sequence (P11712 whole entry): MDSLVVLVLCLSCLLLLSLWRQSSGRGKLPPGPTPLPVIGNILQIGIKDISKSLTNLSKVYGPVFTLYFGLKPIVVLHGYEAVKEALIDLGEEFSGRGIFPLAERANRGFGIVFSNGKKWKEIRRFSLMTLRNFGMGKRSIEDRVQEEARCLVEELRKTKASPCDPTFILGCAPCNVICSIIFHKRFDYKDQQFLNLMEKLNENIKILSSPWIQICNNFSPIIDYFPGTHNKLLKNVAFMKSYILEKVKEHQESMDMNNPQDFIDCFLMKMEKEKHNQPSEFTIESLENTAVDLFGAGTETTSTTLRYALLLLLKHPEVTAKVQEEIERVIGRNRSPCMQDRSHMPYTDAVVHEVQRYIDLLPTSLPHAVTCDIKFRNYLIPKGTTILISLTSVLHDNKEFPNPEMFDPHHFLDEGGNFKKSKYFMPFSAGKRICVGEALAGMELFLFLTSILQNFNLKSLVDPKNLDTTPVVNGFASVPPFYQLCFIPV

In the case of `CC(=O)Nc1ccc(/C=N/Nc2c(Cl)cc(Cl)cc2Cl)cc1`, the IC50 (NADPH oxidase 1) was > 17 µM (not active).
In the case of `C/C(=N\O)C(=O)NCc1ccccn1`, the IC50 (14-3-3 protein gamma) was > 50 µM (not active).
For `Clc1ccc(C[n+]2c(-c3ccccc3)cc(-c3ccccc3)cc2-c2ccccc2)cc1.[O-][Cl+3]([O-])([O-])[O-]`, the EC50 [1] was > 60 µM (not active), the EC50 (cells) was 0.173 µM (active) and the EC50 [2] was < 0.1 µM (active). The AC50 (INS1) was 2.05 µM (active) and the EC50 (Melanocortin receptor 4) was > 89.2 µM (inactive).
For `COc1ccccc1-n1nnnc1SCc1cc2c(cc1Br)OCO2`, the IC50 [3] was 1.36 µM (not active) and the IC50 (14-3-3 protein gamma) was > 50 µM (not active).
In the case of `COc1cc(NC(=O)c2noc3c2CCC3)c(OC)cc1Cl`, the IC50 [4] was 11.1 µM (not active) and the IC50 (Bcl-2-like protein 1) was > 109 µM (not active).
In the case of `COc1ccc(-c2nc(-c3ccc(OC)c(OC)c3)[nH]c2-c2ccc(OC)cc2)cc1`, the IC50 (NADPH oxidase 1) was > 17 µM (not active).
In the case of `COc1ccccc1-c1nnc(NC(C)=O)s1`, the EC50 [5] was 11 µM (not active) and the AC50 (Cytochrome P450 2C9) was “inconclusive”.
In the case of `O=C(CCc1ccc(O)cc1)c1c(O)cc(O)cc1O[C@@H]1O[C@@H](CO)[C@@H](O)[C@@H](O)[C@H]1O`, the AC50 (Cytochrome P450 2C19) was 6.31 µM (inconclusive).
With `COc1cc(/C=N/NC(=O)c2cccc(NC(=O)c3ccccc3)c2)ccc1O` the EC50 [5] was 5.62 µM (active).
In the case of `CC1Cc2ccccc2N1C(=O)CSc1nnc(-c2ccc(S(=O)(=O)N3CCCC3)cc2)o1` (centres undefined), the EC50 (Estrogen receptor) was 7.79 µM (active).
With `COc1ccc(OC2C=CC(C#Cc3ccc(Br)cc3)OC2CO)c(C(C)(C)C)c1` (centres undefined) the AC50 (Cytochrome P450 2C19) was 3.16 µM (inconclusive).
In the case of `COc1ccc(C2=CC3=C(Br)C(=O)C(C)(OC(=O)c4cccs4)C(=O)C3=CO2)cc1` (centres undefined), the IC50 [4] was 16.8 µM (not active), the EC50 [6] was 32.8 µM (active) and the IC50 (Bcl-2-like protein 1) was > 109 µM (not active). For the same compound, the AC50 [7] was > 100 µM (inactive), the EC50 [8] was 29.1 µM (active) and the AC50 [9] was 2.35 µM (active).
In the case of `NC(=O)Cn1c(=O)n(Cc2ccco2)c(=O)c2c3c(sc21)CCCCC3`, the IC50 (Large T antigen) was 33 µM (active), the EC50 [10] was > 120 µM (not active) and the IC50 (Estrogen receptor beta) was < 0.023 µM (not active). The AC50 (Cytochrome P450 3A4) was 25.1 µM (inconclusive), the EC50 [11] was > 120 µM (not active) and the EC50 (H4) was > 120 µM (not active).
For `Cc1ccc2nc(NC(=O)c3cccc(-c4cc5ccccc5oc4=O)c3)sc2c1`, the CC50 (Vero) was > 100 µM (active), the EC50 [1] was > 60 µM (not active) and the EC50 [2] was 1.09 µM (active). The AC50 [12] was 1.71 µM (active).
